Reference: patent US20110288052A1, “NOVEL COMPOUNDS, PHARMACEUTICAL COMPOSITIONS CONTAINING SAME, AND METHODS OF USE FOR SAME” (priority 2008, published 2011)
Values after ≈ are worked out from the molar mass of the structure shown. Like-named read-outs stand apart in the source and are kept apart here.

What was measured:
Assay type in all cases: cell-based
[1] = test system: Enterococcus faecalis (ATCC # 29212); test: Broth microdilution antimicrobial assay, E. faecalis; conditions: for MIC: Enterococcus faecalis, ATCC29212
Description: Antimicrobial Properties A broth microdilution assay is used to assess the antimicrobial activity of the compounds. Compounds are tested at twofold serial dilutions, and the concentration that inhibits visible growth (OD600 at 10% of control) is defined as the MIC. Microorganisms tested include Staphylococcus aureus (ATCC # 29213), Enterococcus faecalis (ATCC # 29212), Pseudomonas aerpginosa (ATCC # 27853), and Escherichia coli (ATCC # 25922). The assay is performed in two growth media, Mueller Hinton Broth and Trypticase Soy Broth.
A blood (Tsoy/5% sheep blood) agar plate is inoculated from frozen stocks maintained in T soy broth containing 10% glycerol and incubated overnight at 37° C. Colonies are suspended in sterile broth so that the turbidity matches the turbidity of a 0.5 McFarland standard. The inoculum is diluted 1:10 in sterile broth (Mueller Hinton or Trypticase soy) and 195 μl is dispensed per well of a 96-well plate. The compounds to be tested, dissolved in DMSO, are added to the wells in 5 μl volume at the following concentrations: 25, 12.5, 6.25, 3.125, 1.56 and 0.78 μg/ml in duplicate. Additional concentrations are tested if required. 5 μl of DMSO added to duplicate wells are the vehicle control. Serial dilutions of positive control compounds, vancomycin (E. faecalis and S. aureus) and tobramycin (E. coli and P. aerpginosa), are included in each run.
After 24 hours of incubation at 37° C., plates are read at OD600 on a Molecular Devices SpectraMax Plus Spectrophotometer. Average OD600 values are computed using SOFTmax Pro Software (Molecular Devices) and MIC values are determined by linear regression analysis using Prism version 3.02 (Graph Pad Software, San Diego). The MIC is defined as the concentration of compound required to produce an OD600 reading equivalent to 10% of the vehicle control reading.

[2] = test system: MCF-7 human breast cancer cells (fatty acid oxidation pathway activity); test: Fatty acid oxidation ([14C]palmitate to acid soluble products); conditions: for Emax at 1.56 µg/mL: at 1.56 μg/ml; for FAO SC 150: concentration leading to 150% of control acid soluble products, Neg = threshold not reached; for Emax at 0.098 µg/mL: at 0.098 μg/ml; for Emax at 6.25 µg/mL: at 6.25 μg/ml
Description: Measurement of Fatty Acid Oxidation and Determination of SC150 of Compounds This assay measures the degradation of [^14C]palmitate into acid soluble products and is a measure of fatty acid oxidation pathway activity in vitro. It is utilized to measure fatty acid oxidation in vitro. MCF-7 human breast cancer cells cultured as above, are plated at 2.5×10^5 cells per well in 24-well plates. Following overnight incubation, the compounds to be tested, solubilized in DMSO, are added at […], 0.39, 1.56, 6.25, 25, and 100 μg/ml in triplicate, with lower concentrations tested if necessary. DMSO is added to triplicate wells for a vehicle control. C75 is run at 5 and 10 μg/ml in triplicate as positive controls. After 1 hour of incubation, medium is removed 100 uM of [^14C] palmitate in cyclodextran and 200 uM carnitine in serum free medium (250 μl volume) is added to each well. After 30 minutes of additional incubation, the reaction is stopped by addition of 2.6N HClO4. Contents of each well are transferred to 1.5 ml Eppendorf tubes and 4N KOH is added. The tubes are incubated for 30 minutes at 60° C. 1 M NaAcetate and 3N H2SO4 is added to each tube and vortexed. The tubes are centrifuged at 1000 rpm for 5 minutes at RT. 250 μl of the supernatant is transferred to a 2 ml eppendorf tube. To each tube is added: 938 μl of chloroform:methanol (1:1), 468 μl chloroform and 281 μl of deionized water. The tubes are vortexed and centrifuged at 1000 rpm for 5 minutes at RT. 750 μl of the upper phase is transferred into a scintillation vial 5 ml of scintillant is added and vials are counted for 1 minute for ^14C. The Beckman Scintillation counter calculates the average cpm values for triplicates. The SC150 for the compounds is defined as the concentration of drug leading to a 150% increase in production of acid soluble products of [^14C] palmitate as compared to untreated controls. This is determined by plotting the average cpm for each inhibitor concentration tested, performing linear regression and computing the best-fit line, r^2 values, and 95% confidence intervals. The average cpm values are computed by the Beckman scintillation counter (Model LS6500) for each compound concentration. Computation of linear regression, best-fit line, r^2, and 95% confidence intervals are calculated using Prism Version 3.0 (Graph Pad Software). If a compound fails to achieve this 150% threshold it is considered negative. The maximum value achieved is also reported (FAO Max).

HCT116 cells = test: XTT cytotoxicity assay, HCT116 (H); conditions: Homo sapiens, HCT-116
Description: (§1) XTT Cytotoxicity Assay The XTT assay is a non-radioactive alternative for the [^51Cr] release cytotoxicity assay. XTT is a tetrazolium salt that is reduced to a formazan dye only by metabolically active, viable cells. The reduction of XTT is measured spectrophotometrically as OD490-OD650. To measure the cytotoxicity of specific compounds against cancer cells, 9×10^3 MCF-7 human breast cancer cells (shown in the tables as “(M)”), obtained from the American Type Culture Collection are plated per well in 96 well plates in DMEM medium with 10% fetal bovine serum, insulin, penicillin, and streptomycin. Following overnight culture at 37° C. and 5% CO2, the compounds to be tested, dissolved in DMSO, are added to the wells in 1 μl volume at the following concentrations: 80, 40, 20, 10, 5, 2.5, 1.25, and 0.625 μg/ml in triplicate. Additional concentrations are tested if required. 1 μl of DMSO is added to triplicate wells are the vehicle control. C75 is run at 40, 20, […], and 5 μg/ml in triplicate as positive controls. After 72 hours of incubation, cells are incubated for 4 hours with the XTT reagent as per manufacturer's instructions (Cell Proliferation Kit II (XTT) Roche). Plates are read at OD490 and OD650 on a Molecular Devices SpectraMax Plus Spectrophotometer. Three wells containing the XTT reagent without cells serve as the plate blank. XTT data are reported as OD490-OD650. Averages and standard error of the mean are computed using SOFTmax Pro software (Molecular Dynamics). The IC50 for the compounds is defined as the concentration of drug leading to a 50% reduction in OD490-OD650 compared to controls. The OD490-OD650 are computed by the SOFTmax PRO software (Molecular Devices) for each compound concentration. IC50 is calculated by linear regression, plotting the FAS activity as percent of control versus drug concentrations. Linear regression, best-fit line, r^2, and 95% confidence intervals are determined using Prism Version 3.0 (Graph Pad Software). The test was also run against OVCAR3 cells (“OV”), and HCT116 cells (“H”).

OVCAR3 cells = test: XTT cytotoxicity assay, OVCAR3 (OV); conditions: Homo sapiens
Description: as §1

[3] = Homo sapiens, MCF7, read-out: FAO Max

SMILES | EF/MH (MIC) ([1]; Mueller Hinton Broth) | EF/Tsoy (MIC) ([1]; Trypticase Soy Broth) | Emax at 1.56 µg/mL [2, 3] [%] | FAO SC 150 [2] | IC50 (HCT116 cells) [µg/mL] | IC50 (OVCAR3 cells; OVCAR-3) [µg/mL] | other results
CCCCCCCCOc1ccc(NC(=O)COC2=CC(=O)SC2(C)CCCCCCCC)cc1 (centres unmarked) | Neg | Neg | – | Neg | > 80 | 67 (≈ 133 µM) | Emax at 0.098 µg/mL [2, 3]: 97%
CCCCCCCCC1(C)SC(=O)C=C1OCC(=O)Nc1ccc2c(c1)OCO2 (centres unmarked) | Neg | Neg | – | Neg | 14.8 (≈ 35.3 µM) | 9.3 (≈ 22.2 µM) | Emax at 0.098 µg/mL [2, 3]: 45%
CCCCCCCCC1(C)SC(=O)C=C1OCC(=O)Nc1ccccc1N1CCCCC1 (centres unmarked) | Neg | Neg | 119 | Neg | 13.1 (≈ 28.6 µM) | 15.5 (≈ 33.8 µM) | –
CCCCCCCCC1(C)SC(=O)C=C1OCC(=O)Nc1ccccc1 (centres unmarked) | Neg | Neg | – | Neg | 7.1 (≈ 18.9 µM) | 12.1 (≈ 32.2 µM) | Emax at 0.098 µg/mL [2, 3]: 122%
CCCCCCCCC1(C)SC(=O)C=C1OCC(=O)Nc1ccc(Cl)cc1C(F)(F)F (centres unmarked) | Neg | Neg | 141 | 1.9 µg/mL | 14 (≈ 29.3 µM) | 24 (≈ 50.2 µM) | –
CCCCCCCC[C@]1(C)SC(=O)C=C1OCC(=O)Nc1ccccc1C(F)(F)F | – | – | 105 | Neg | 15.6 (≈ 35.2 µM) | 24.1 (≈ 54.3 µM) | –
CCCCCCCC[C@]1(C)SC(=O)C=C1OCC(=O)Nc1ccccc1OC(F)(F)F | – | – | – | Neg | 78.8 (≈ 171 µM) | > 80 | Emax at 25 µg/mL ([2]; Homo sapiens, MCF7, at 25 μg/ml, read-out: FAO Max): 116%
CCCCCCCCC1(C)SC(=O)C=C1OCC(=O)Nc1cccc(C(F)(F)F)c1 (centres unmarked) | – | – | – | Neg | 7.6 (≈ 17.1 µM) | 11 (≈ 24.8 µM) | Emax at 0.395 µg/mL ([2]; Homo sapiens, MCF7, at 0.395 μg/ml, read-out: FAO Max): 75%
CCCCCCCCC1(C)SC(=O)C=C1OCC(=O)Nc1cccc(OC(F)(F)F)c1 (centres unmarked) | – | – | 122 | Neg | 8 (≈ 17.4 µM) | 11.6 (≈ 25.2 µM) | –
CCCCCCCCC1(C)SC(=O)C=C1OCC(=O)Nc1ccccc1SC (centres unmarked) | – | – | – | Neg | 31.4 (≈ 74.5 µM) | 43.8 (≈ 104 µM) | Emax at 6.25 µg/mL [2, 3]: 114%
CCCCCCCCC1(C)SC(=O)C=C1OCC(=O)Nc1ccc(SC)cc1 (centres unmarked) | – | – | – | Neg | 11.5 (≈ 27.3 µM) | 16.9 (≈ 40.1 µM) | Emax at 6.25 µg/mL [2, 3]: 100%
CCCCCCCCC1(C)SC(=O)C=C1OCC(=O)Nc1ccc(Cl)cc1Cl (centres unmarked) | – | – | 141 | Neg | 13.1 (≈ 29.5 µM) | – | IC50 (OVCAR3 cells; OVCAR-3, unit given as ml): 64.5 µg/mL (≈ 145 µM)

Second part, led by results:

EF/MH (MIC) ([1]; Mueller Hinton Broth) | EF/Tsoy (MIC) ([1]; Trypticase Soy Broth) | SMILES | Emax at 1.56 µg/mL [2, 3] [%] | FAO SC 150 [2] | IC50 (HCT116 cells) [µg/mL] | IC50 (OVCAR3 cells; OVCAR-3) [µg/mL] | other results
Neg | – | CCCCCCCCC1(C)SC(=O)C=C1OCC(=O)Nc1ccc(Cl)cc1 (centres unmarked) | 106 | Neg | 5.9 ± 2.7 (≈ 14.4 µM) | 9.2 ± 5 (≈ 22.4 µM) | MIC ([1]; Trypticase Soy Broth, read-out: EF/Tsoy (MIC)): 44 µg/mL (≈ 107 µM)
Neg | Neg | CCCCCCCCC1(C)SC(=O)C=C1OCC(=O)Nc1ccc(OC)cc1 (centres unmarked) | – | Neg | 15.6 (≈ 38.5 µM) | 17.8 (≈ 43.9 µM) | Emax at 0.098 µg/mL [2, 3]: 90%
Neg | Neg | CCCCCCCCC1(C)SC(=O)C=C1OCC(=O)Nc1ccc(-c2cccs2)cc1 (centres unmarked) | – | 61.9 µg/mL | > 80 | > 80 | Emax at 100 µg/mL ([2]; Homo sapiens, MCF7, at 100 μg/ml, read-out: FAO Max): 168%
Neg | Neg | CCCCCCCCC1(C)SC(=O)C=C1OCC(=O)Nc1ccc(Oc2ccc(Cl)cc2)cc1 (centres unmarked) | – | Neg | 6.3 (≈ 12.5 µM) | 5 (≈ 9.96 µM) | Emax at 6.25 µg/mL [2, 3]: 109%
Neg | Neg | CCCCCCCCC1(C)SC(=O)C=C1OCC(=O)Nc1ccc(C(F)(F)F)cc1 (centres unmarked) | – | Neg | 4.8 (≈ 10.8 µM) | 4 (≈ 9.02 µM) | Emax at 6.25 µg/mL [2, 3]: 130%
Neg | Neg | CCCCCCCCC1(C)SC(=O)C=C1OCC(=O)Nc1ccc(OC(F)(F)F)cc1 (centres unmarked) | – | – | 3.5 (≈ 7.62 µM) | 3.3 (≈ 7.18 µM) | –
– | Neg | CCCCCCCCC1(C)OC(=O)C=C1OCC(=O)Nc1ccc(Cl)cc1 (centres unmarked) | – | Neg | 4.8 (≈ 12.2 µM) | 9.2 (≈ 23.4 µM) | MIC ([1]; Mueller Hinton Broth, read-out: EF/MH (MIC)): 70 µg/mL (≈ 178 µM); Emax at 0.39 µg/mL ([2]; Homo sapiens, MCF7, at 0.39 μg/ml, read-out: FAO Max): 95%
